# Measurements as given in publication PMC12163822, “Synthesis and Pharmacological Characterization of a Novel Cannabinoid Receptor 1 Antagonist” (ACS Omega, 2025).
# “Also recorded” adds a separate entry of the source. Where two headings read alike, the source gives them in different places.
# Experiments:
# [1] = biological target: cannabinoid receptors; experiment: [3H]CP55,940 competition binding in rat brain cortex membrane homogenates; set-up: species or system Sprague-Dawley rat; settings: for IC50: vs [3H]CP55,940, rat brain cortex membranes
# Description: Sprague–Dawley rats (n = 5) were anesthetized and sacrificed by decapitation. Spleens and brains were then quickly removed by dissection at 4 °C, and in the case of the brain tissue, the cortex was dissected for the preparation of the membrane homogenates. For this procedure, spleen and cortex samples were homogenized using a Teflon-glass grinder (15 up-and-down strokes at 800 rpm) in 30 volumes of homogenization buffer (1 mM EGTA, 3 mM MgCl2, 50 mM Tris–HCl; pH 7.4) supplemented with […], at 4 °C. The obtained homogenates were centrifuged for 5 min at 1500 rpm. Pellets were removed, and supernatants were centrifuged again for 15 min at 14,000 rpm. For washing, the obtained pellets were resuspended in a buffer and centrifuged again, and the supernatant was removed. The resulting aliquots were stored at −80 °C until use.
# (§1) To stop the reaction, an ice-cold wash buffer (50 mM Tris–HCl and 0.5% BSA, pH 7.4) was added. Then, the membranes were retained by vacuum filtration to a Whatman GF/C glass microfiber filter (Sigma-Aldrich, St. Louis, MO, USA) and the free radioligand was discarded. Filters with the bound radioligand were transferred to vials containing 5 mL of Ultima Gold cocktail (Revvity, Boston, MA, USA) and measured with a Packard Tri-Carb 2200CA liquid scintillation counter (Revvity, Boston, MA, USA).
# Data from radioligand affinity assays were analyzed by using nonlinear regression. A comparison of fits was performed for every curve and the preferred model (one site vs two sites) was chosen in each case. Curves were fitted to the pooled data from multiple experiments. For the evaluation of data from autoradiographic assays, the Kruskal–Wallis test followed by Dunn’s post hoc tests for multiple comparisons was performed. For statistical significance, the threshold was set at p = 0.05. The number of replicates or animal sample number used in each case is stated in the figure legends. GraphPad Prism 9 (GraphPad Software) was employed for data analysis and presentation.
# [2] = biological target: T1, human CB1 receptor (Homo sapiens, UniProt P21554); experiment: [3H]CP55,940 inhibition curves in membranes from CHO cells overexpressing human CB1; type: binding
# T1 construct: purchased Sigma-Aldrich; host or cells: CHO cells
# Description: (§2) Membrane homogenates from CHO cells overexpressing human CB1 and CB2 receptors, as well as matched wild-type cells, were used to test newly synthesized compounds and were acquired from Sigma-Aldrich (St Louis, MO, USA).
# as §1
# (§3) A concentration of 0.02 mg/mL of commercial WT (as control) and CB1 and CB2 overexpressing CHO cells were used, and the same protocol described above was followed. Rat spleen homogenates were also used at a concentration of 0.1 mg/mL as a further characterization of binding to the CB2 receptor, given the high expression of this receptor in this tissue and the practical lack of CB1 in it.
# [3] = biological target: T2, human CB2 receptor (Homo sapiens, UniProt P34972); experiment: [3H]CP55,940 inhibition curves in membranes from CHO cells overexpressing human CB2; type: binding
# T2 construct: purchased Sigma-Aldrich; host or cells: CHO cells
# Description: as §2, §1, §3
# [4] = biological target: T3, CB1 receptor (Rattus norvegicus, UniProt P20272); experiment: [3H]CP55,940 receptor autoradiography in rat brain slices; type: binding, Sprague-Dawley rat; set-up: fresh frozen sections from brain samples from wild-type; from tissue; host or cells: Sprague-Dawley rat brain sections; settings: for [3H]CP55,940 binding: rat, 3 nM [3H]CP55,940 in the presence of compound 10 µM
# Description: All brain sections were air-dried for 30 min and later immersed in Coplin jars for preincubation in a buffer containing 50 mM Tris–HCl and 1% of BSA (pH 7.4) for 30 min at room temperature. The objective of this preincubation was to remove endogenous ligands. […] Following incubation, tissue slices were washed with an ice-cold preincubation buffer, dipped in distilled water, and dried overnight. To generate autoradiograms, dry sections were placed in hermetically closed cassettes and exposed to β-radiation-sensitive films for 21 days at 4 °C. To calibrate the optical densities to fmol/mg tissue equivalent, [^3H]-microscales were exposed to the films. To quantify the calibrated films after scanning, Fiji software (Bethesda, […], USA) was used.
# [5] = biological target: T3, CB1 receptor; experiment: [35S]GTPγS functional binding assay in rat cortex membrane homogenates; type: biochemical; set-up: functional assays in membrane homogenates from the rat cortical tissue; from tissue; host or cells: Sprague-Dawley rat brain cortex
# Description: The compound with the best affinity was also tested using functional [^35S]-GTPγS binding assays to characterize its activity as an agonist or antagonist/inverse agonist. A protein concentration of 0.1 mg/mL of rat cortex homogenates and a protein concentration of 0.02 mg/mL of commercial CB1 overexpressing CHO cells were used for these assays, suspended in a reaction buffer (Tris–HCl 50 mM, EGTA 1 mM, MgCl2 3 mM, NaCl 100 mM, 0.5% BSA; pH 7.4). The target compound was used in concentrations ranging from 10^–11 to 10^–4 M and incubated for 2 h at 37 °C with agitation in the presence of 0.5 nM [^35S]-GTPγS and 50 μM GDP. Basal coupling of [^35S]-GTPγS to Gi/o proteins was determined by incubating the membrane aliquots with the radioligand in the absence of the target compound. To define nonspecific binding, 10 μM of unlabeled GTPγS was added to the incubation.
# T3 sequence (P20272 whole entry): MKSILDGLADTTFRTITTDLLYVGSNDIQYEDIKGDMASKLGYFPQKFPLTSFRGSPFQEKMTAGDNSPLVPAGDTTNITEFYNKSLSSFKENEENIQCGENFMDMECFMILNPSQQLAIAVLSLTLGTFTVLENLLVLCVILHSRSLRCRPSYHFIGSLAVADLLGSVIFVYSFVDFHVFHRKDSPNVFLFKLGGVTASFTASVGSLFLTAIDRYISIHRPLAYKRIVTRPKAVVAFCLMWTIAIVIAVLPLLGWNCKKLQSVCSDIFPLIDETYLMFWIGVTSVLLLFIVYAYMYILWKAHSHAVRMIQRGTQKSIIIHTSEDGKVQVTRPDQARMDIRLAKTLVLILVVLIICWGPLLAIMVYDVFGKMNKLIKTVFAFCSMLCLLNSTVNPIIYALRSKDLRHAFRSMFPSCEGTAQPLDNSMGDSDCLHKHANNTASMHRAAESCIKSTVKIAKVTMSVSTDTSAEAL
# T2 sequence (P34972 whole entry): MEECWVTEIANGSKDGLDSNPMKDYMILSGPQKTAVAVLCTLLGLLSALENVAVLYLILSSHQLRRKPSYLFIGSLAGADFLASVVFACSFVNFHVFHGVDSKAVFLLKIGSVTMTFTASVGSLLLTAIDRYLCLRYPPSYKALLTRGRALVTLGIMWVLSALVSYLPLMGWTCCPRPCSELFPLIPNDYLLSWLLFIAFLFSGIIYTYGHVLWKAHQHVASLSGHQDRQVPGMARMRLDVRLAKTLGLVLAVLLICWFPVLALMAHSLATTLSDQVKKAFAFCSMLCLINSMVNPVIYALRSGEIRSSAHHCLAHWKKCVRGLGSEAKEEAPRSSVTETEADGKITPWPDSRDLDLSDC
# T1 sequence (P21554 whole entry): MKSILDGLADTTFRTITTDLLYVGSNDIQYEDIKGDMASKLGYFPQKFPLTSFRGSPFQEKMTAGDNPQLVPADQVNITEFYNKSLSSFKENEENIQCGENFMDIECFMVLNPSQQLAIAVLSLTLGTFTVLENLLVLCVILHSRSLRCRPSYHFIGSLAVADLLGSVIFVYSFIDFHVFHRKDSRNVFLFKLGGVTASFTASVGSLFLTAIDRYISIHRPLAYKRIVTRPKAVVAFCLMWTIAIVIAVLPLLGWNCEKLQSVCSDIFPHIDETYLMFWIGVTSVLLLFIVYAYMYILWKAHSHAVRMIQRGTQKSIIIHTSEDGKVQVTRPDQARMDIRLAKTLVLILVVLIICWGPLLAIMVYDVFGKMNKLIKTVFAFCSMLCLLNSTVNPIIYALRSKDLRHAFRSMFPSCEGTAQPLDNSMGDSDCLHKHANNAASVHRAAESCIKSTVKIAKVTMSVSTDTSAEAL
structure (smiles),measurement,setting,value
CCOC(=O)/C=C1\C(=O)Nc2ccc(C)cc2-c2c1c1cc(OC)ccc1n2C(=O)OCC [UVI3502],IC50,"[1]; high-affinity site of two-site fit, read-out: IC50Hi",0.026 nM
same,IC50,"[1]; low-affinity site of two-site fit, read-out: IC50Lo",772 ± 49.4 nM
same,"inhibition of [3H]CP55,940 binding corresponding to the high-affinity binding site",[1]; rat cortex membranes,approximately 18%
same,"inhibition of [3H]CP55,940 binding corresponding to the low-affinity binding site",[1]; rat cortex membranes,~40%
same,"total inhibition of [3H]CP55,940 binding",[1]; rat cortex membranes,about 58%
same,"affinity for cannabinoid receptors (inhibition of [3H]CP55,940 binding)","[1]; rat cortex membranes, result in words",showed affinity for cannabinoid receptors
same,IC50,[2],4.64 ± 1.6 µM
same,"total inhibition of [3H]CP55,940 binding",[2]; CB1 overexpressing CHO membranes,approximately 38%
same,IC50,[3],16.2 ± 0.131 µM
same,"maximum inhibition of [3H]CP55,940 binding",[3]; CB2 overexpressing CHO membranes,approximately 83%
same,"inhibition of [3H]CP55,940 binding in brain areas","[4]; rat brain slices, 10 µM, result in words",partially inhibit
same,"[3H]CP55,940 binding",[4]; amygdala,136 ± 52 fmol/mg t.e.
same,"[3H]CP55,940 binding",[4]; cerebellum (gray matter),421 ± 126 fmol/mg t.e.
same,"[3H]CP55,940 binding",[4]; cortex,122 ± 25 fmol/mg t.e.
same,"[3H]CP55,940 binding",[4]; globus pallidus,572 ± 40 fmol/mg t.e.
same,"[3H]CP55,940 binding",[4]; hippocampus dorsal,184 ± 26 fmol/mg t.e.
same,"[3H]CP55,940 binding",[4]; nucleus basalis magnocellularis,147 ± 18 fmol/mg t.e.
same,"[3H]CP55,940 binding",[4]; striatum,291 ± 18 fmol/mg t.e.
same,"[3H]CP55,940 binding",[4]; substantia nigra,1364 ± 581 fmol/mg t.e.
same,stimulation of [35S]GTPγS binding (coupling of CB1 to Gi/o proteins),"[5]; rat cortex membrane homogenates, result in words",does not; also recorded: did not stimulate the coupling of CB1 receptors to Gi/o proteins
same,EC50,"[5]; slight decrease of baseline [35S]GTPγS binding, rat brain cortex membrane homogenates",4.06 ± 3.27 nM
